For assay [1], the target named is T1, Integrase (Human immunodeficiency virus 1, UniProt Q7ZJM1). The experiment in a line: Inhibitory concentration to inhibit HIV-1 integrase by 3' -processing method.
For assay [2], the target named is T1, Integrase. Nature of the assay: Inhibitory concentration against HIV-1 integrase by strand transfer method.

T1 sequence (Q7ZJM1 whole entry): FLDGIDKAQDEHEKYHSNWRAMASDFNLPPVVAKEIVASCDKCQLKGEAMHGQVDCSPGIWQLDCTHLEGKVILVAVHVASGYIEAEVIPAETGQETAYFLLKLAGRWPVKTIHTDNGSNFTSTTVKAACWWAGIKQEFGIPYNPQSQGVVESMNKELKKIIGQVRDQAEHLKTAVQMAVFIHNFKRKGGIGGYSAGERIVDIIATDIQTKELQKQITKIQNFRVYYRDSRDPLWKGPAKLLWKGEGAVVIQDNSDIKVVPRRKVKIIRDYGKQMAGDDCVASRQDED

As to `Cc1[nH]n(-c2ccccc2)c(=O)c1N=Nc1ccc(S(N)(=O)=O)cc1`, the IC50 on Integrase [1] and against Integrase [2] was more than 200 µM in each case.

Take `CCC(=O)CC=c1[nH]c2nnc(CCCCc3nnc4[nH]c(=CCC(=O)CC)c(=O)n34)n2c1=O` [1-(5-oxo-3-{4-[5-oxo-6-(3-oxopentyl)-5H-imidazo[2,1-c][1,2,4]triazol-3-yl]butyl}-5H-imidazo[2,1-c][1,2,4]triazol-6-yl)-3-pentanone]: the IC50 at Integrase [1] and against Integrase [2] was more than 200 µM in each case.

Turning to `CC1=C(N)C(=NNc2ccc(S(=O)(=O)Nc3cc(C)nc(C)n3)cc2)C(=O)C(C)C1=O` (stereo not given) [4-(2-Amino-3,5-dimethyl-4,6-dioxo-cyclohex-1-enylazo)-N-(2,6-dimethyl-pyrimidin-4-yl)-benzenesulfonamide], the 50% inhibitory concentration (IC50) against Integrase [1] and against Integrase [2] was more than 200 µM in each case.

In the case of `CC1=C(N)C(=NNc2ccc(S(=O)(=O)Nc3scc(C)c3C)cc2)C(=O)C(C)C1=O` (stereo not given) [4-(2-Amino-3,5-dimethyl-4,6-dioxo-cyclohex-1-enylazo)-N-(3,4-dimethyl-thiophen-2-yl)-benzenesulfonamide], the IC50 on Integrase [1] and at Integrase [2] was more than 200 µM in each case.

Consider `CC1=C(N)C(=NNc2ccc(S(=O)(=O)Nc3nccc(C)n3)cc2)C(=O)C(C)C1=O` (stereo not given) [4-(2-Amino-3,5-dimethyl-4,6-dioxo-cyclohex-1-enylazo)-N-(4-methyl-pyrimidin-2-yl)-benzenesulfonamide], for which the IC50 at Integrase [1] and against Integrase [2] was more than 200 µM throughout.

As to `CC1=C(N)C(=NNc2ccc(S(=O)(=O)Nc3nnc(C)s3)cc2)C(=O)C(C)C1=O` (stereo not given) [4-(2-Amino-3,5-dimethyl-4,6-dioxo-cyclohex-1-enylazo)-N-(5-methyl-[1,3,4]thiadiazol-2-yl)-benzenesulfonamide], the half-inhibitory concentration (IC50) against Integrase [1] and against Integrase [2] was more than 200 µM throughout.

With `CC1=C(N)C(=NNc2ccc(S(=O)(=O)Nc3ccccn3)cc2)C(=O)C(C)C1=O` (stereo not given) [4-(2-Amino-3,5-dimethyl-4,6-dioxo-cyclohex-1-enylazo)-N-pyridin-2-yl-benzenesulfonamide], the IC50 at Integrase [1] and against Integrase [2] was more than 200 µM throughout.

For the molecule `CC1=C(N)C(=NNc2ccc(S(=O)(=O)Nc3ncccn3)cc2)C(=O)C(C)C1=O` (stereo not given) [4-(2-Amino-3,5-dimethyl-4,6-dioxo-cyclohex-1-enylazo)-N-pyrimidin-2-yl-benzenesulfonamide], the IC50 at Integrase [1] and at Integrase [2] was more than 200 µM in each case.

On to `CC1=C(N)C(=NNc2ccc(S(=O)(=O)Nc3nccs3)cc2)C(=O)C(C)C1=O` (stereo not given) [4-(2-Amino-3,5-dimethyl-4,6-dioxo-cyclohex-1-enylazo)-N-thiazol-2-yl-benzenesulfonamide], for which the IC50 at Integrase [1] and against Integrase [2] was more than 200 µM throughout.

As to `Cc1[nH]n(-c2ccccc2)c(=O)c1N=Nc1ccc(S(=O)(=O)Nc2ccccn2)cc1` [4-(3-Methyl-5-oxo-1-phenyl-4,5-dihydro-1H-pyrazol-4-ylazo)-N-pyridin-2-yl-benzenesulfonamide], the concentration for half-maximal inhibition (IC50) on Integrase [1] and against Integrase [2] was more than 200 µM in each case.

On to `Cc1[nH]n(-c2ccccc2)c(=O)c1N=Nc1ccc(S(=O)(=O)Nc2ncccn2)cc1` [4-(3-Methyl-5-oxo-1-phenyl-4,5-dihydro-1H-pyrazol-4-ylazo)-N-pyrimidin-2-yl-benzenesulfonamide], for which the IC50 on Integrase [1] and against Integrase [2] was more than 200 µM throughout.

Consider `NS(=O)(=O)c1ccc(NN=C2Sc3nc4ccccc4n3C2=O)cc1` [4-(3-Oxo-2,3-dihydro-benzo[4,5]imidazo[2,1-b]thiazol-2-ylazo)-benzenesulfonamide], for which the IC50 at Integrase [1] and against Integrase [2] was more than 200 µM throughout.

Consider `NS(=O)(=O)c1ccc(N=Cc2c(O)n(-c3ccccc3)n(-c3ccccc3)c2=O)cc1` [4-[(3,5-Dioxo-1,2-diphenyl-pyrazolidin-4-ylidenemethyl)-amino]-benzenesulfonamide], for which the concentration for half-maximal inhibition (IC50) against Integrase [1] and on Integrase [2] was more than 200 µM in each case.

Consider `NS(=O)(=O)c1ccc(N=Nc2c(O)n(-c3ccccc3)n(-c3ccccc3)c2=O)cc1` [4-[N'-(3,5-Dioxo-1,2-diphenyl-pyrazolidin-4-ylidene)-hydrazino]-benzenesulfonamide], for which the concentration for half-maximal inhibition (IC50) against Integrase [1] and on Integrase [2] was more than 200 µM throughout.

On to `Cc1cc(NS(=O)(=O)c2ccc(N=Nc3c(C)[nH]n(-c4ccccc4)c3=O)cc2)nc(C)n1` [N-(2,6-Dimethyl-pyrimidin-4-yl)-4-(3-methyl-5-oxo-1-phenyl-4,5-dihydro-1H-pyrazol-4-ylazo)-benzenesulfonamide], for which the IC50 against Integrase [1] and against Integrase [2] was more than 200 µM each time.

As a reminder, the IC50 is the concentration that gives 50% inhibition.

The values are drawn from BindingDB's records for doi:10.1021/jm960596u (National Cancer Institute-Bethesda, 1997).
